Assay results taken from patent publication US8981092B2, “Substituted 3,4-dihydro-2H-pyrrolo[1,2-a]pyrazin-1-ones as modulators of protein kinase activity” (Nerviano Medical Sciences S.r.l., priority 2008, dated 2015).

What follows are compounds tested against Full-length human PIM-1 (Homo sapiens, UniProt P11309). Details: read-out: PIM-1 IC50; ATP 200 μM, Aktide 25 μM, enzyme 1 nM.
Chain of Full-length human PIM-1 (P11309 whole entry): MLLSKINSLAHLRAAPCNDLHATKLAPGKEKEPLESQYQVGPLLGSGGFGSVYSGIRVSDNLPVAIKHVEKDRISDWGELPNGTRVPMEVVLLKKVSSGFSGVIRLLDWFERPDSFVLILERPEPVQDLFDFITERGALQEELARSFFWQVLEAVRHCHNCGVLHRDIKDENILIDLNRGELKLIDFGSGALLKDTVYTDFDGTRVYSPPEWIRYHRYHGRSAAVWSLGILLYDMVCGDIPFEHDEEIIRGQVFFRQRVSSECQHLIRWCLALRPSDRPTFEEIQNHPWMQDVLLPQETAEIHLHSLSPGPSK
Method: Biochemical Assay for Inhibitors of PIM-1 Kinase Activity
The inhibitory activity of putative kinase inhibitors and the potency of selected compounds were determined using a trans-phosphorylation assay.
Specific peptide or protein substrates are trans-phosphorylated by their specific ser-thr or tyr kinase in the presence of ATP traced with ^33P-γ-ATP, and in the presence of their own optimal buffer and cofactors.
At the end of the phosphorylation reaction, more than 98% unlabeled ATP and radioactive ATP is captured by an excess of the ion exchange dowex resin; the resin then settles down to the bottom of the reaction plate by gravity.
Supernatant is subsequently withdrawn and transferred into a counting plate, then evaluated by β-counting.
The buffer for PIM-1 assay was composed of HEPES 50 mM, at pH 7.5, with 10 mM MgCl2, 1 mM DTT, 3 μM NaVO3, and 0.2 mg/ml BSA
ATP concentration: 200 μM
Enzyme concentration: 1 nM
The test mix consisted of:
1) 3× Enzyme mix (done in Kinase Buffer 3×), 5 μL/well
2) 3× substrate and ATP mix (done in ddH2O), together with ^33P-γ-ATP, 5 μL/well
3) 3× test compounds (diluted into ddH2O-3% DMSO)-5 μL/well
a) for percent inhibition studies (HTS), individual dilution plates at 1 mM are diluted at a 3× concentration (30 μM) in ddH2O (3% DMSO=final concentration) using a Beckman NX automated pipetting platform. The same instrument is used for distributing the diluted mother plates into the test plates.
An automated station for serial dilutions (Biomek FX, Beckman) is used for producing 1:3 dilutions in 100% DMSO, from line A1 to A10, and for all the seven compounds in the column.
At the start of the run, the robot aspirates 5 μL of ATP mix, makes an air gap inside the tips (2 μL) and aspirates 2 μL of PIM mix. The following dispensation into the plates allows the kinase reaction to start upon 3 cycles of mixing, done by the robot itself.
The robot incubates the plates for 60 minutes at room temperature, and then stops the reaction by pipetting 70 μL of dowex resin suspension into the reaction mix. Three cycles of mixing are done immediately after the addition of the resin.
Another mixing cycle is performed after all the plates are stopped, this time using normal tips: the plates are then allowed to rest for about one hour in order to maximize ATP capture.
Data are analysed by an internally customized version of the SW package “Assay Explorer” that provides either % inhibition for primary assays or sigmoidal fittings of the ten-dilutions curves for IC50 determination in the secondary assays/hit confirmation routines.
Compound O=C(CC1CNC(=O)c2cc(-c3ccc(F)c(F)c3)cn21)NCc1ccncc1 (stereo not drawn) [Compound A139-M-B39] has an IC50 of 980 nM.
Work on O=C(C[C@@H]1CNC(=O)c2cc(-c3cccc(F)c3)cn21)N[C@H](CO)Cc1ccccc1 [A127-M-B64 isomer R] yielded an IC50 of 2910 nM.
With O=C(CC1CNC(=O)c2cc(-c3ccc4c(c3)OCO4)cn21)NCC1CCCCC1 (stereo not drawn) [Compound A132-M-B22] the IC50 was 360 nM.
For O=C(C[C@H]1CNC(=O)c2cc(-c3cccc(F)c3)cn21)N[C@H](CO)C1CCCCC1 [A127-M-B61 isomer S], the IC50 was 20 nM.
Compound NC[C@@H](NC(=O)C[C@H]1CNC(=O)c2cc(-c3cccc(C(F)(F)F)c3)cn21)c1ccccc1 [A133-M-B65 isomer S] has an IC50 of 50 nM.
O=C(CC1CNC(=O)c2cc(-c3cccc(Cl)c3)cn21)NC1CCCCC1 (stereo not drawn) [Compound A150-M-B24] was tested, and the IC50 was 210 nM.
Work on Cc1ccccc1NC(=O)CC1CNC(=O)c2cc(-c3cccc(Cl)c3)cn21 (stereo not drawn) [Compound A150-M-B36] yielded an IC50 of 1390 nM.
With O=C(CC1CNC(=O)c2cc(-c3ccsc3)cn21)NCC1CCCCC1 (stereo not drawn) [Compound A33-M-B22] the IC50 was 460 nM.
Work on O=C(CC1CNC(=O)c2cc(-c3cccc(Cl)c3)cn21)NCC1CC1 (stereo not drawn) [Compound A150-M-B48] yielded an IC50 of 120 nM.
O=C(CC1CNC(=O)c2cc(-c3cccc(Cl)c3)cn21)NCc1ccncc1 (stereo not drawn) [Compound A150-M-B39] was tested, and the IC50 was 220 nM.
With COC(=O)c1cccc(-c2cc3n(c2)C(CC(=O)NCc2ccccc2)CNC3=O)c1 (stereo not drawn) [Compound A142-M-B14] the IC50 was 4830 nM.
O=C(CC1CNC(=O)c2cc(-c3cccc(F)c3)cn21)NCc1cccc(F)c1 (stereo not drawn) [Compound A127-M-B30] was tested, and the IC50 was 190 nM.
O=C(C[C@@H]1CNC(=O)c2cc(-c3cc(F)ccc3F)cn21)N[C@H](CO)c1ccccc1 [A158-M-B62 isomer R] was tested, and the IC50 was 550 nM.
O=C(CC1CNC(=O)c2cc(-c3ccccc3F)cn21)NCc1ccccc1 (stereo not drawn) [Compound A128-M-B14] showed an IC50 of 200 nM.
Compound O=C(CC1CNC(=O)c2cc(-c3cccc(C(F)(F)F)c3)cn21)NCc1ccc(F)cc1 (stereo not drawn) [Compound A133-M-B30] has an IC50 of 610 nM.
CC(C)CCNC(=O)CC1CNC(=O)c2cc(-c3ccc(F)cc3F)cn21 (stereo not drawn) [Compound A151-M-B32] showed an IC50 of 490 nM.
CN1CCN(C(=O)CC2CNC(=O)c3cc(-c4cc(F)ccc4F)cn32)C(c2ccccc2)C1 (mixture of isomers) [Compound A158-M-B63] was tested, and the IC50 was 400 nM.
Compound O=C(CC1CNC(=O)c2cc(-c3cn[nH]c3)cn21)NCc1ccc(F)cc1 (stereo not drawn) [Compound A144-M-B30] has an IC50 of 1100 nM.
In the case of CCCNC(=O)CC1CNC(=O)c2cc(-c3cccc(Cl)c3)cn21 (stereo not drawn) [Compound A150-M-B25], the IC50 is reported as 450 nM.
NCC(NC(=O)CC1CNC(=O)c2cc(-c3cc(F)ccc3F)cn21)c1ccccc1 (stereo not drawn) [A158-M-B65 isomer S] gave an IC50 of 30 nM.
For COCCCNC(=O)CC1CNC(=O)c2cc(-c3cccc(Cl)c3)cn21 (stereo not drawn) [Compound A150-M-B42], the IC50 was 590 nM.
CC(C)(C)NC(=O)CC1CNC(=O)c2cc(-c3cccc(Cl)c3)cn21 (stereo not drawn) [Compound A150-M-B43] showed an IC50 of 790 nM.
Work on O=C(CC1CNC(=O)c2cc(-c3ccc(F)c(F)c3)cn21)NCc1ccccc1 (stereo not drawn) [Compound A139-M-B14] yielded an IC50 of 220 nM.
In the case of CC(C)CCNC(=O)CC1CNC(=O)c2cc(-c3cccc(Cl)c3)cn21 (stereo not drawn) [Compound A150-M-B32], the IC50 is reported as 230 nM.
Work on O=C(C[C@H]1CNC(=O)c2cc(-c3cccc(C(F)(F)F)c3)cn21)N[C@H](CO)c1ccccc1 [A133-M-B62 isomer S] yielded an IC50 of 130 nM.
O=C(CC1CNC(=O)c2cc(-c3ccccc3F)cn21)NCc1ccco1 (stereo not drawn) [Compound A128-M-B40] gave an IC50 of 250 nM.
Compound O=C(CC1CNC(=O)c2cc(-c3cccc(F)c3)cn21)NCc1ccncc1 (stereo not drawn) [Compound A127-M-B39] has an IC50 of 570 nM.
Work on O=C(C[C@@H]1CNC(=O)c2cc(-c3cc(F)ccc3F)cn21)N[C@H](CO)C1CCCCC1 [A158-M-B61 isomer R] yielded an IC50 of 860 nM.
With NC[C@@H](NC(=O)C[C@H]1CNC(=O)c2cc(-c3cccc(F)c3)cn21)c1ccccc1 [A127-M-B65 isomer S] the IC50 was 10 nM.
With O=C(CC1CNC(=O)c2cc(-c3cccc(Cl)c3)cn21)NC1CCCC1 (stereo not drawn) [Compound A150-M-B26] the IC50 was 240 nM.
Compound CN1CCN(C(=O)CC2CNC(=O)c3cc(-c4cccc(F)c4)cn32)C(c2ccccc2)C1 (mixture of isomers) [Compound A127-M-B63] has an IC50 of 390 nM.
For O=C(CC1CNC(=O)c2cc(-c3cccc(C(F)(F)F)c3)cn21)NCc1ccccc1 (stereo not drawn) [Compound A133-M-B14], the IC50 was 810 nM.
O=C1NCC(CC(=O)N2CCCCCC2)n2cc(-c3cccc(Cl)c3)cc21 (stereo not drawn) [Compound A150-M-B45] showed an IC50 of 580 nM.
O=C(C[C@@H]1CNC(=O)c2cc(-c3cccc(C(F)(F)F)c3)cn21)N[C@H](CO)Cc1ccccc1 [A133-M-B64 isomer R] was tested, and the IC50 was 2040 nM.
O=C(C[C@@H]1CNC(=O)c2cc(-c3ccnc(F)c3)cn21)N[C@H](CO)c1ccccc1 [A157-M-B62 isomer R] gave an IC50 of 1140 nM.
For O=C(CC1CNC(=O)c2cc(-c3cccc(C(F)(F)F)c3)cn21)NCC1CCCCC1 (stereo not drawn) [Compound A133-M-B22], the IC50 was 380 nM.
For O=C(C[C@@H]1CNC(=O)c2cc(-c3ccnc(F)c3)cn21)N[C@H](CO)Cc1ccccc1 [A157-M-B64 isomer R], the IC50 was 700 nM.
Compound COC(=O)c1cccc(-c2cc3n(c2)C(CC(=O)NCc2cccc(F)c2)CNC3=O)c1 (stereo not drawn) [Compound A142-M-B30] has an IC50 of 2520 nM.
Compound O=C(CC1CNC(=O)c2cc(-c3cn[nH]c3)cn21)NCC1CCCCC1 (stereo not drawn) [Compound A144-M-B22] has an IC50 of 480 nM.
Compound O=C(C[C@@H]1CNC(=O)c2cc(-c3ccnc(F)c3)cn21)N[C@H](CO)C1CCCCC1 [A157-M-B61 isomer R] has an IC50 of 270 nM.
With CN1CCN(C(=O)CC2CNC(=O)c3cc(-c4cccc(C(F)(F)F)c4)cn32)C(c2ccccc2)C1 (mixture of isomers) [Compound A133-M-B63] the IC50 was 2540 nM.
O=C(CC1CNC(=O)c2cc(-c3ccc(F)cc3F)cn21)NCc1ccncc1 (stereo not drawn) [Compound A151-M-B39] was tested, and the IC50 was 4110 nM.
O=C(CC1CNC(=O)c2cc(-c3ccccc3F)cn21)NCC1CCCCC1 (stereo not drawn) [Compound A128-M-B22] showed an IC50 of 120 nM.
For O=C(CC1CNC(=O)c2cc(-c3ccccc3F)cn21)NCc1cccc(F)c1 (stereo not drawn) [Compound A128-M-B30], the IC50 was 270 nM.
O=C(CC1CNC(=O)c2cc(-c3cccc(OC(F)(F)F)c3)cn21)NCc1ccccc1 (stereo not drawn) [Compound A134-M-B14] showed an IC50 of 720 nM.
O=C(CC1CNC(=O)c2cc(-c3ccc(F)cc3)cn21)NCC1CCCCC1 (stereo not drawn) [Compound A129-M-B22] gave an IC50 of 130 nM.
Compound O=C(CC1CNC(=O)c2cc(-c3cn[nH]c3)cn21)NCc1ccccc1 (stereo not drawn) [Compound A144-M-B14] has an IC50 of at least 10000 nM.
O=C(CC1CNC(=O)c2cc(-c3cccc(Cl)c3)cn21)NCc1ccccc1 (stereo not drawn) [Compound A150-M-B14] showed an IC50 of 140 nM.
Work on O=C(CC1CNC(=O)c2cc(-c3ccsc3)cn21)NCc1cccc(F)c1 (stereo not drawn) [Compound A33-M-B30] yielded an IC50 of 580 nM.
In the case of O=C(CC1CNC(=O)c2cc(-c3ccc(F)cc3F)cn21)NCc1ccccc1 (stereo not drawn) [Compound A151-M-B14], the IC50 is reported as 100 nM.
For O=C(CC1CNC(=O)c2cc(-c3ccc(F)c(F)c3)cn21)NCc1ccco1 (stereo not drawn) [Compound A139-M-B40], the IC50 was 130 nM.
In the case of O=C(CC1CNC(=O)c2cc(-c3cccc(OC(F)(F)F)c3)cn21)NCc1cccc(F)c1 (stereo not drawn) [Compound A134-M-B30], the IC50 is reported as 890 nM.
With O=C(C[C@H]1CNC(=O)c2cc(-c3cccc(C(F)(F)F)c3)cn21)N[C@H](CO)C1CCCCC1 [A133-M-B61 isomer S] the IC50 was 70 nM.
O=C(CC1CNC(=O)c2cc(-c3ccc(F)c(F)c3)cn21)NCc1ccc(F)cc1 (stereo not drawn) [Compound A139-M-B30] showed an IC50 of 410 nM.
C=CCN1CCN(C(=O)CC2CNC(=O)c3cc(-c4cccc(Cl)c4)cn32)CC1 (stereo not drawn) [Compound A150-M-B49] was tested, and the IC50 was 230 nM.
O=C(C[C@H]1CNC(=O)c2cc(-c3cccc(F)c3)cn21)N[C@H](CO)c1ccccc1 [A127-M-B62 isomer S] gave an IC50 of 90 nM.
O=C(CC1CNC(=O)c2cc(-c3cccc(Cl)c3)cn21)Nc1ccccc1 (stereo not drawn) [Compound A150-M-B52] gave an IC50 of 430 nM.
In the case of O=C(CC1CNC(=O)c2cc(-c3ccc(F)c(F)c3)cn21)NCC1CCCCC1 (stereo not drawn) [Compound A139-M-B22], the IC50 is reported as 90 nM.
O=C(CC1CNC(=O)c2cc(-c3cccc(Cl)c3)cn21)NCCN1CCOCC1 (stereo not drawn) [Compound A150-M-B38] showed an IC50 of 1060 nM.
Work on CC(C)CCNC(=O)CC1CNC(=O)c2cc(-c3ccccc3F)cn21 (stereo not drawn) [Compound A128-M-B32] yielded an IC50 of 700 nM.
O=C(C[C@@H]1CNC(=O)c2cc(-c3cccc(C(F)(F)F)c3)cn21)N[C@H](CO)c1ccccc1 [A133-M-B62 isomer R] was tested, and the IC50 was 4830 nM.
Compound O=C(C[C@@H]1CNC(=O)c2cc(-c3cccc(C(F)(F)F)c3)cn21)N[C@H](CO)C1CCCCC1 [A133-M-B61 isomer R] has an IC50 of 5940 nM.
For O=C(CC1CNC(=O)c2cc(-c3ccccc3F)cn21)NCc1ccncc1 (stereo not drawn) [Compound A128-M-B39], the IC50 was 540 nM.
With O=C(CC1CNC(=O)c2cc(-c3cccc(F)c3)cn21)NCc1ccccc1 (stereo not drawn) [Compound A127-M-B14] the IC50 was 180 nM.
CC(C)CCNC(=O)CC1CNC(=O)c2cc(-c3cccc(F)c3)cn21 (stereo not drawn) [Compound A127-M-B32] gave an IC50 of 610 nM.
CN1CCN(C(=O)CC2CNC(=O)c3cc(-c4ccnc(F)c4)cn32)C(c2ccccc2)C1 (mixture of isomers) [Compound A157-M-B63] was tested, and the IC50 was 690 nM.
